We go through 7 compounds from patent US6806249B2, “Perfume containing surfactant compositions having perfume burst when diluted” (Unilever Home & Personal Care USA, a division of Conopco, priority 2002, dated 2004).

A short description of data set [1]: Dilution behaviour of components of a twelve-component perfume mixture in 5 wt. % sodium laurate, normalized GC headspace (FIG. 9). Type of data set: physicochemical. Conditions: component of perfume mixture in 5 wt. % sodium laurate. On the procedure: A typical fully formulated perfume used in a commercial product, e.g., personal wash formulation, usually is a multi-component composition in which the properties of each perfume component can vary dramatically. A typical perfume mixture in a 5 wt. % sodium laurate formulation was tested for its “perfume burst” behaviour upon dilution. The PBI values of the components in this perfume mixture vary from a large negative number (e.g., benzyl acetate, PBI=−819; PEA, PBI=−200 in sodium laurate solution) to a large positive number (e.g., gamma-methyl-ionone, PBI=1,677 in sodium laurate solution). The dilution behaviour of each component in this perfume mixture is shown in FIG. 9 (the graph represents a normalized GC measurement so the amount of burst of each molecule is clearly indicated). In this perfume mixture of twelve components, the dilution behaviour of each component is different. Each component has a unique dilution curve (GC headspace vs. dilution factor) governed by the factors (hydrophobicity, volatility, etc) discussed previously. […] For those perfumes with a moderate positive PBI (e.g., limonene, PBI=12; p-cymene=12.2 in sodium laurate solution), the perfume headspaces increases 1-2 times upon dilution.

The nature of data set [2]: Critical micellization concentration (CMC) of surfactants. In kind it is physicochemical. Conditions: no reference given. From the text:
As noted, the perfume burst is affected not only by the perfume properties, but also by properties of the formulation in which the perfume is found. Thus, the number and type of surfactant micelles found in a surfactant solution also has an effect. […] The critical micellization concentration is defined as the surfactant concentration at which micelles begin to form from unassociated surfactant monomers (M. J. Rosen, Surfactants and Interfacial Phenomena, 2nd Ed., 1989). Conversely, in a surfactant with low critical micelle concentration (e.g., one where micelles do form easily or, stated differently, don't break apart as readily once formed), a perfume, being generally more hydrophobic, tends to stay in the surfactant more readily. As a result, the perfume will tend not to “burst” (increase perfume headspace) as readily and, to achieve more headspace, more dilution may be required. The CMC of the surfactant system also affects “perfume burst”. Thus, for example, a surfactant system of relatively low CMC (e.g., sodium lauryl ether sulfate, also known as SLES) lowers the PBI and can greatly reduce the expected “perfume burst” on dilution. By contrast, surfactant systems of relatively higher CMC (e.g., sodium laurate compared to SLES) would raise PBI and can thus increase “perfume burst” on dilution.

A short description of data set [3]: Fragrance burst in shower liquids with different sodium laurate concentrations (FIG. 6). In kind it is physicochemical. To be noted: 5% sodium laurate product compared with 10, 15 (and 20) wt.%. On the procedure:
Limonene (PBI=12.2) was tested in shower liquids containing sodium laurate at 5, 10, 15 and 20 wt.%, γ-Methyl lonone and menthone were tested in sodium laurate at 5, 10 and 15 wt.% (FIG. 6).

The nature of data set [4]: Fragrance burst in shower liquids with surfactants of different CMC (FIG. 8). To be noted: 5% sodium laureth sulfate (CMC=0.0011 wt/wt) compared with 5% sodium laurate (CMC=0.005 wt/wt). In kind it is physicochemical. As to the method:
Limonene and γ-Methyl lonone were tested in two different shower liquid samples. One product was formulated with 5% sodium laurate (CMC=0.005 wt/wt) and the second with 5% sodium laureth sulfate (CMC=0.0011 wt/wt) (FIG. 8).

For data set [5] the following is noted: 50° C.; cited from earlier work.

Read-outs that look alike come from different tables or passages of the source. Marks after values point to notes of the source that are not given here.

Take `CC(=O)OCc1ccccc1` [Benzyl Acetate]: the “perfume headspace behaviour upon dilution” value in data set [1] is “decrease upon dilution”.
Regarding `CCCCCCCC(=O)NCCC[N+](C)(C)CC(=O)[O-]` [Caprylamidopropyl betaine], in data set [2], the CMC was found to be 0.00032 wt./wt.
As to `C=C(C)[C@H]1CC=C(C)CC1` [Limonene], the “dilutions needed to reach maximum fragrance burst” value (shortened to “dilutions needed”) in data set [3] is listed as “reached with fewer dilutions in the 5% soap product”. Also, the overall fragrance burst entry in data set [4] is “lower overall fragrance burst”.
As to `CC(C)[C@@H]1CC[C@@H](C)CC1=O` [Menthone], in data set [3], the “dilutions needed” value is listed as “reached with fewer dilutions in the 5% soap product”.
For `CC(=O)/C(C)=C/C1C(C)=CCCC1(C)C` (stereo not shown) [γ-methyl ionone], the “dilutions needed” value in data set [3] is “reached with fewer dilutions in the 5% soap product”. Moreover, the “perfume headspace behaviour upon dilution” value in data set [1] is recorded as “as high as seven times”. Moreover, the overall fragrance burst result in data set [4] was “lower overall fragrance burst”.
Take Sodium laureth sulfonate (2EO): the CMC in data set [5] was 0.0011*** wt./wt.
As to Sodium laureth sulfonate (3EO), in data set [5], the CMC is reported as 0.00084*** wt./wt.
